How the values were obtained:
[1] = tested on: rhinovirus A2; test: Antiviral activity against HRV2 with 3C protease E3E/G, A103A/V, N165T mutation infected in human H1-HeLa cells assessed as virus-induced cytopathic effect after 9 passages for 62 days by XTT assay; assay type: functional, organism-based; conditions: Rhinovirus A
[2] = tested on: rhinovirus A2; test: Ratio of EC50 for HRV2 infected in human H1-HeLa cells after 10 passages for 66 days to EC50 for wild type HRV2 infected in human H1-HeLa cells; assay type: functional
[3] = tested on: rhinovirus A39; test: Ratio of EC50 for HRV39 infected in human H1-HeLa cells after 3 passages for 14 days to EC50 for wild type HRV39 infected in human H1-HeLa cells; assay type: functional
[4] = tested on: rhinovirus B14; test: Antiviral activity against HRV14 with 3C protease T129T/A, T131T/A, T143P/S mutation infected in human H1-HeLa cells assessed as virus-induced cytopathic effect after 3 passages for 14 days by XTT assay; assay type: functional, organism-based; conditions: Rhinovirus B, 336 h
[5] = tested on: rhinovirus B14; test: Antiviral activity against HRV14 with 3C protease A121A/V, T129A, T131A, N132S, Y139Y/H, T143P mutation infected in human H1-HeLa cells assessed as virus-induced cytopathic effect after 12 passages for 72 days by XTT assay; assay type: functional, organism-based; conditions: Rhinovirus B
[6] = tested on: rhinovirus A39; test: Ratio of EC50 for HRV39 infected in human H1-HeLa cells after 6 passages for 33 days to EC50 for wild type HRV39 infected in human H1-HeLa cells; assay type: functional
[7] = tested on: rhinovirus A2; test: Ratio of EC50 for HRV2 with 3C protease E3E/G, A103A/V, N165T mutation infected in human H1-HeLa cells after 9 passages for 62 days to EC50 for wild type HRV2 infected in human H1-HeLa cells; assay type: functional
[8] = tested on: rhinovirus B14; test: Ratio of EC50 for HRV14 with 3C protease T129T/A, T131T/A, T143P/S mutation infected in human H1-HeLa cells after 3 passages for 14 days to EC50 for wild type HRV14 infected in human H1-HeLa cells; assay type: functional
[9] = tested on: rhinovirus B14; test: Ratio of EC50 for HRV14 with 3C protease T131A mutation infected in human H1-HeLa cells to EC50 for wild type HRV14 infected in human H1-HeLa cells; assay type: functional
[10] = tested on: rhinovirus A2; test: Ratio of EC50 for HRV2 infected in human H1-HeLa cells after 7 passages for 45 days to EC50 for wild type HRV2 infected in human H1-HeLa cells; assay type: functional
[11] = tested on: Human rhinovirus sp.; test: Antiviral activity against wild type HRV Hanks infected in human H1-HeLa cells assessed as virus-induced cytopathic effect after 4 days by plaque reduction assay; assay type: functional, organism-based; conditions: 96 h
[12] = tested on: rhinovirus B14; test: Ratio of EC50 for HRV14 infected in human H1-HeLa cells after 12 passages for 72 days to EC50 for wild type HRV14 infected in human H1-HeLa cells; assay type: functional
[13] = tested on: rhinovirus B14; test: Ratio of EC50 for HRV14 infected in human H1-HeLa cells after 11 passages for 65 days to EC50 for wild type HRV14 infected in human H1-HeLa cells; assay type: functional
[14] = tested on: rhinovirus B14; test: Ratio of EC50 for HRV14 with 3C protease T129A mutation infected in human H1-HeLa cells to EC50 for wild type HRV14 infected in human H1-HeLa cells; assay type: functional
[15] = tested on: rhinovirus B14; test: Antiviral activity against wild type HRV14 infected in human H1-HeLa cells assessed as virus-induced cytopathic effect after 3 days by XTT assay; assay type: functional, organism-based; conditions: Rhinovirus B, 72 h
[16] = tested on: rhinovirus B14; test: Ratio of EC50 for HRV14 infected in human H1-HeLa cells after 3 passages for 14 days to EC50 for wild type HRV14 infected in human H1-HeLa cells; assay type: functional
[17] = tested on: rhinovirus B14; test: Ratio of EC50 for HRV14 with 3C protease with A121A/V, T129A, T131A, T143P, Y139Y/H mutation infected in human H1-HeLa cells after 11 passages for 65 days to EC50 for wild type HRV14 infected in human H1-HeLa cells; assay type: functional
[18] = tested on: rhinovirus A2; test: Ratio of EC50 for HRV2 infected in human H1-HeLa cells after 4 passages for 24 days to EC50 for wild type HRV2 infected in human H1-HeLa cells; assay type: functional
[19] = tested on: rhinovirus A2; test: Ratio of EC50 for HRV2 infected in human H1-HeLa cells after 5 passages for 30 days to EC50 for wild type HRV2 infected in human H1-HeLa cells; assay type: functional
[20] = tested on: rhinovirus B14; test: Ratio of EC50 for HRV14 with 3C protease with T129A, T131A, T143P, Y139Y/H mutation infected in human H1-HeLa cells after 10 passages for 55 days to EC50 for wild type HRV14 infected in human H1-HeLa cells; assay type: functional
[21] = tested on: rhinovirus B14; test: Antiviral activity against HRV14 with 3C protease T129A, T131T/A, T143P mutation infected in human H1-HeLa cells assessed as virus-induced cytopathic effect after 4 passages for 17 days by XTT assay; assay type: functional, organism-based; conditions: Rhinovirus B, 408 h
[22] = tested on: rhinovirus A2; test: Ratio of EC50 for HRV2 with 3C protease N165T mutation infected in human H1-HeLa cells after 5 passages for 30 days to EC50 for wild type HRV2 infected in human H1-HeLa cells; assay type: functional
[23] = tested on: Human rhinovirus sp.; test: Ratio of EC50 for HRV Hanks infected in human H1-HeLa cells after 9 passage for 59 days to EC50 for wild type HRV Hanks infected in human H1-HeLa cells; assay type: functional
[24] = tested on: rhinovirus B14; test: Ratio of EC50 for HRV14 with 3C protease T143P mutation infected in human H1-HeLa cells to EC50 for wild type HRV14 infected in human H1-HeLa cells; assay type: functional
[25] = tested on: rhinovirus B14; test: Antiviral activity against 0.02 MOI wild type HRV14 infected in human H1-HeLa cells assessed as cell killing after 3 days by XTT assay; assay type: functional
[26] = tested on: Human rhinovirus sp.; test: Antiviral activity against HRV Hanks with 3C protease T130A mutation infected in human H1-HeLa cells assessed as virus-induced cytopathic effect after 6 passages for 40 days by plaque reduction assay; assay type: functional, organism-based
[27] = tested on: rhinovirus A2; test: Antiviral activity against wild type HRV2 infected in human H1-HeLa cells assessed as virus-induced cytopathic effect after 3 days by XTT assay; assay type: functional, organism-based; conditions: Rhinovirus A, 72 h
[28] = tested on: rhinovirus A39; test: Antiviral activity against HRV39 with 3C protease S105T, N130K, L136F mutation infected in human H1-HeLa cells assessed as virus-induced cytopathic effect after 9 passages for 50 days by XTT assay; assay type: functional, organism-based; conditions: Rhinovirus A
[29] = tested on: rhinovirus B14; test: Ratio of EC50 for HRV14 infected in human H1-HeLa cells after 10 passages for 55 days to EC50 for wild type HRV14 infected in human H1-HeLa cells; assay type: functional
[30] = tested on: Human rhinovirus sp.; test: Ratio of EC50 for HRV Hanks infected in human H1-HeLa cells after 2 passage for 17 days to EC50 for wild type HRV Hanks infected in human H1-HeLa cells; assay type: functional
[31] = tested on: rhinovirus A39; test: Ratio of EC50 for HRV39 infected in human H1-HeLa cells after 4 passages for 24 days to EC50 for wild type HRV39 infected in human H1-HeLa cells; assay type: functional
[32] = tested on: rhinovirus B14; test: Antiviral activity against HRV14 with 3C protease T129A, T131T/A, T143P mutation infected in human H1-HeLa cells assessed as virus-induced cytopathic effect after 5 passages for 22 days by XTT assay; assay type: functional, organism-based; conditions: Rhinovirus B, 528 h

**Q.** `CCOC(=O)/C=C/[C@H](C[C@@H]1CCNC1=O)NC(=O)[C@@H](CC(=O)[C@@H](NC(=O)c1cc(C)on1)C(C)C)Cc1ccc(F)cc1` [RUPINTRIVIR] was tested. Which EC50 [1] did it give?
**A.** 0.14 µM

**Q.** And the “Ratio EC50” value [2]?
**A.** 15

**Q.** What about the “Ratio EC50” value [3] of the same compound?
**A.** 6

**Q.** And the EC50 [4]?
**A.** 0.152 µM

**Q.** What about the EC50 [5] of the same compound?
**A.** 0.414 µM

**Q.** And the “Ratio EC50” value [6]?
**A.** 6

**Q.** What about the “Ratio EC50” value [7] of the same compound?
**A.** 5

**Q.** What about the “Ratio EC50” value [8] of the same compound?
**A.** 7

**Q.** And the “Ratio EC50” value [9]?
**A.** 1

**Q.** And the “Ratio EC50” value [10]?
**A.** 5

**Q.** And the EC50 [11]?
**A.** 0.019 µM

**Q.** What about the “Ratio EC50” value [12] of the same compound?
**A.** 90

**Q.** And the “Ratio EC50” value [13]?
**A.** 90

**Q.** What about the “Ratio EC50” value [14] of the same compound?
**A.** 1

**Q.** What about the EC50 [15] of the same compound?
**A.** 0.021 µM

**Q.** What about the “Ratio EC50” value [16] of the same compound?
**A.** 5

**Q.** What about the “Ratio EC50” value [17] of the same compound?
**A.** 16

**Q.** What about the “Ratio EC50” value [18] of the same compound?
**A.** 5

**Q.** What about the “Ratio EC50” value [19] of the same compound?
**A.** 5

**Q.** And the “Ratio EC50” value [20]?
**A.** 15

**Q.** And the EC50 [21]?
**A.** 0.227 µM

**Q.** And the “Ratio EC50” value [22]?
**A.** 2

**Q.** And the “Ratio EC50” value [23]?
**A.** 3

**Q.** And the “Ratio EC50” value [24]?
**A.** 1

**Q.** And the Activity [25]?
**A.** 90.2%

**Q.** What about the EC50 [26] of the same compound?
**A.** 0.051 µM

**Q.** And the EC50 [27]?
**A.** 0.03 µM

**Q.** What about the EC50 [28] of the same compound?
**A.** 0.094 µM

**Q.** What about the “Ratio EC50” value [29] of the same compound?
**A.** 90

**Q.** And the “Ratio EC50” value [30]?
**A.** 2

**Q.** And the “Ratio EC50” value [31]?
**A.** 6

**Q.** What about the EC50 [32] of the same compound?
**A.** 0.096 µM

From ChEMBL document CHEMBL1151438, “In vitro resistance study of rupintrivir, a novel inhibitor of human rhinovirus 3C protease” (Antimicrob Agents Chemother, 2007)
